{
  "source": "patent US20250230193A1",
  "about": "“CYCLIC COMPOUND HAVING SELECTIVE KRAS INHIBITORY EFFECT ON HRAS AND NRAS” (CHUGAI SEIYAKU KABUSHIKI KAISHA, priority 2022, published 2025)",
  "key": {"[1]": {"target": "GDP-bound NRAS wild-type protein (Homo sapiens, UniProt P01111)", "sequence (P01111 whole entry)": "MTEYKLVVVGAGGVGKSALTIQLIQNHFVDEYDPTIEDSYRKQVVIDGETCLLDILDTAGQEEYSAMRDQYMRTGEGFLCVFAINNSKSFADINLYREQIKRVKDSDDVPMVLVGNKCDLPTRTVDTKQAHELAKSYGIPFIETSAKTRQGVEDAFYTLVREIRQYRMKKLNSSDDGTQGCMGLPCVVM", "assay": "Binding to NRAS by surface plasmon resonance (SPR), Single Cycle Kinetics", "conditions": "SPR; for NRAS/KRAS (ratio of KD value for NRAS to KD value for KRAS) / NRAS/KRAS (ratio of KD value with respect to NRAS to KD value with respect to KRAS): GDP-bound NRAS wild-type vs GDP-bound KRAS wild-type"}, "[2]": {"target": "GDP-bound HRAS wild-type protein (Homo sapiens, UniProt P01112)", "sequence (P01112 whole entry)": "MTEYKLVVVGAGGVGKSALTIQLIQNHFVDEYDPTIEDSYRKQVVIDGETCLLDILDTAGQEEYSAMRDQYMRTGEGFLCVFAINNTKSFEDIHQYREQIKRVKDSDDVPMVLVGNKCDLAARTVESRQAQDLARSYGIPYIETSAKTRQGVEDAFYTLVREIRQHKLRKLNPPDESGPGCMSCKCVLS", "assay": "Binding to HRAS by surface plasmon resonance (SPR), Single Cycle Kinetics", "conditions": "SPR; for HRAS/KRAS (ratio of KD value for HRAS to KD value for KRAS) / HRAS/KRAS (ratio of KD value with respect to HRAS to KD value with respect to KRAS): GDP-bound HRAS wild-type vs GDP-bound KRAS wild-type"}},
  "note": "Where a SMILES comes first, the peptide text is derived from it. Bridges are numbered along the chain shown (N, C = ends). [ ]: non-standard residue; d: D form. The star is where a group is joined. hPhe(3-Cl-4-CF3) = N[C@@H](CCc1ccc(C(F)(F)F)c(Cl)c1)C(=O)O; NPrPhe(4-CF3) = CCCN[C@@H](Cc1ccc(C(F)(F)F)cc1)C(=O)O; NMeChg = CN[C@H](C(=O)O)C1CCCCC1; NMeD = CN[C@@H](CC(=O)O)C(=O)O; NMeL = CN[C@@H](CC(C)C)C(=O)O; Morpholide = C1CN(*)CCO1; Ac4c = NC1(C(=O)O)CCC1; Sar = CNCC(=O)O",
  "data": [
    {"smiles": "CCCN(C)C(=O)[C@@H]1CC(=O)N(C)[C@@H](CC(F)F)C(=O)N[C@@H]([C@@H](C)CC)C(=O)N(C)CC(=O)N(C)[C@H]2C/C=C\\CCN(C2=O)[C@@H](Cc2ccc(C(F)(F)F)cc2)C(=O)N(C)CC(=O)N[C@@H](CCc2cc(F)c(C(F)(F)F)c(F)c2)C(=O)N2C[C@H](OCC)C[C@H]2C(=O)NC2(CC(C)(C)C2)C(=O)N(C)[C@@H](C2CCCC2)C(=O)N1C", "note": "[PP2030]", "values": [
      {"measurement": "NRAS/KRAS (ratio of KD value for NRAS to KD value for KRAS)", "setting": "[1]", "result": "A (a compound having 10 or more and less than 20 is denoted as A)"},
      {"measurement": "HRAS/KRAS (ratio of KD value for HRAS to KD value for KRAS)", "setting": "[2]", "result": "A (a compound having 10 or more and less than 20 is denoted as A)"}
    ]},
    {"smiles": "CCCN1C(=O)CN(C)C(=O)CN(C)C(=O)[C@H]([C@@H](C)CC)NC(=O)[C@H](CC(C)C)N(C)C(=O)C[C@@H](C(=O)N2CCOCC2)N(C)C(=O)[C@H](C2CCCCC2)N(C)C(=O)C2(CCC2)NC(=O)[C@@H]2CCCN2C(=O)[C@H](CCc2ccc(C(F)(F)F)c(Cl)c2)NC(=O)CN(C)C(=O)[C@@H]1Cc1ccc(C(F)(F)F)cc1", "note": "[PP1928] ([NMeL]I[Sar][Sar][NPrPhe(4-CF3)][Sar][hPhe(3-Cl-4-CF3)]P[Ac4c][NMeChg][NMeD]-Morpholide; lactam N-11)", "values": [
      {"measurement": "NRAS/KRAS (ratio of KD value for NRAS to KD value for KRAS)", "setting": "[1]", "result": "B (a compound having 3 or more and less than 10 is denoted as B)"},
      {"measurement": "HRAS/KRAS (ratio of KD value for HRAS to KD value for KRAS)", "setting": "[2]", "result": "B (a compound having 3 or more and less than 10 is denoted as B)"}
    ]},
    {"smiles": "CCC(CC)[C@H]1C(=O)N(C)[C@H](C(=O)N(C)C)CC(=O)N(C)[C@@H](COC)C(=O)N[C@@H]([C@@H](C)CC)C(=O)N(C2CC2)CC(=O)N(C)[C@H]2C/C=C\\CCN(C2=O)[C@@H](CC2CCCCC2)C(=O)N(C)CC(=O)N[C@@H](CCc2cc(F)c(C(F)(F)F)c(F)c2)C(=O)N2C[C@H](OC(C)C)C[C@H]2C(=O)NC2(CC(C)(C)C2)C(=O)N1C", "note": "[PP2515]", "values": [
      {"measurement": "NRAS/KRAS (ratio of KD value with respect to NRAS to KD value with respect to KRAS)", "setting": "[1]", "result": "A (a compound having 10 or more and less than 20 is denoted as A)"},
      {"measurement": "HRAS/KRAS (ratio of KD value with respect to HRAS to KD value with respect to KRAS)", "setting": "[2]", "result": "A (a compound having 10 or more and less than 20 is denoted as A)"}
    ]},
    {"smiles": "CC[C@H](C)[C@@H]1NC(=O)[C@H](CC2CCC2)N(C)C(=O)C[C@@H](C(=O)N(C)C)N(C)C(=O)[C@H](C2CCCC2)N(C)C(=O)C2(CC(C)(C)C2)NC(=O)[C@@H]2CC(F)(F)CN2C(=O)[C@H](CCc2cc(F)c(C(F)(F)F)c(F)c2)NC(=O)CN(C)C(=O)[C@H](Cc2ccc(C(F)(F)F)cc2)N2CC/C=C\\C[C@@H](C2=O)N(C)C(=O)CN(C)C1=O", "note": "[PP1716]", "values": [
      {"measurement": "NRAS/KRAS (ratio of KD value for NRAS to KD value for KRAS)", "setting": "[1]", "result": "AA (a compound having 20 or more is denoted as AA)"},
      {"measurement": "HRAS/KRAS (ratio of KD value for HRAS to KD value for KRAS)", "setting": "[2]", "result": "A (a compound having 10 or more and less than 20 is denoted as A)"}
    ]},
    {"smiles": "CC[C@H](C)[C@@H]1NC(=O)[C@H](CC(C)C)N(C)C(=O)C[C@@H](C(=O)N2CCOCC2)N(C)C(=O)[C@H](C2CCCC2)N(C)C(=O)C2(CCCC2)NC(=O)[C@H](C)N(CC)C(=O)[C@H](CCc2cc(F)c(C(F)(F)F)c(F)c2)NC(=O)CN(C)C(=O)[C@H](Cc2ccc(C(F)(F)F)cc2)N2CCCC[C@@H](C2=O)N(C)C(=O)CN(C)C1=O", "note": "[PP0589]", "values": [
      {"measurement": "NRAS/KRAS (ratio of KD value with respect to GDP-bound NRAS wild-type protein to KD value with respect to KRAS)", "setting": "[1]", "result": "B (a compound having 3 or more and less than 10 is denoted as B)"},
      {"measurement": "HRAS/KRAS (ratio of KD value with respect to GDP-bound HRAS wild-type protein to KD value with respect to KRAS)", "setting": "[2]", "result": "B (a compound having 3 or more and less than 10 is denoted as B)"}
    ]},
    {"smiles": "CC[C@H](C)[C@@H]1NC(=O)[C@H](CC(C)C)N(C)C(=O)C[C@@H](C(=O)N2CCOCC2)N(C)C(=O)[C@H](C2CCC2)N(C)C(=O)C2(CCCC2)NC(=O)[C@@H]2CCCN2C(=O)[C@H](CCc2cc(F)c(C(F)(F)F)c(F)c2)NC(=O)CN(C)C(=O)[C@H](Cc2ccc(C(F)(F)F)cc2)N2CCCC[C@@H](C2=O)N(C)C(=O)CN(C)C1=O", "note": "[PP0566]", "values": [
      {"measurement": "NRAS/KRAS (ratio of KD value with respect to GDP-bound NRAS wild-type protein to KD value with respect to KRAS)", "setting": "[1]", "result": "B (a compound having 3 or more and less than 10 is denoted as B)"},
      {"measurement": "HRAS/KRAS (ratio of KD value with respect to GDP-bound HRAS wild-type protein to KD value with respect to KRAS)", "setting": "[2]", "result": "B (a compound having 3 or more and less than 10 is denoted as B)"}
    ]},
    {"smiles": "CCC[C@@H]1C[C@H]2C(=O)NC3(CC(C)(C)C3)C(=O)N(C)[C@@H](C3CCCC3)C(=O)N(C)[C@H](C(=O)N(C)C)CC(=O)N(C)[C@@H](COC)C(=O)N[C@@H]([C@@H](C)CC)C(=O)N(C)CC(=O)N(C)[C@H]3C/C=C\\CCN(C3=O)[C@@H](Cc3ccc(C(F)(F)F)cc3)C(=O)N(C)CC(=O)N[C@@H](CCc3ccc(C(F)(F)F)c(Cl)c3)C(=O)N2C1", "note": "[PP2275]", "values": [
      {"measurement": "NRAS/KRAS (ratio of KD value with respect to NRAS to KD value with respect to KRAS)", "setting": "[1]", "result": "A (a compound having 10 or more and less than 20 is denoted as A)"},
      {"measurement": "HRAS/KRAS (ratio of KD value with respect to HRAS to KD value with respect to KRAS)", "setting": "[2]", "result": "A (a compound having 10 or more and less than 20 is denoted as A)"}
    ]}
  ]
}
